Assay results from article PMC3627370 (Journal of the American Chemical Society, 2013).

How the values were obtained:
[1] = biological target: T1, nicotinamide phosphoribosyltransferase (NAMPT) (Homo sapiens, UniProt P43490); assay: dissociation constant determination at […] °C, pH […]; format: binding
[2] = biological target: T1, nicotinamide phosphoribosyltransferase (NAMPT); format: biochemical

T1 sequence (P43490 whole entry): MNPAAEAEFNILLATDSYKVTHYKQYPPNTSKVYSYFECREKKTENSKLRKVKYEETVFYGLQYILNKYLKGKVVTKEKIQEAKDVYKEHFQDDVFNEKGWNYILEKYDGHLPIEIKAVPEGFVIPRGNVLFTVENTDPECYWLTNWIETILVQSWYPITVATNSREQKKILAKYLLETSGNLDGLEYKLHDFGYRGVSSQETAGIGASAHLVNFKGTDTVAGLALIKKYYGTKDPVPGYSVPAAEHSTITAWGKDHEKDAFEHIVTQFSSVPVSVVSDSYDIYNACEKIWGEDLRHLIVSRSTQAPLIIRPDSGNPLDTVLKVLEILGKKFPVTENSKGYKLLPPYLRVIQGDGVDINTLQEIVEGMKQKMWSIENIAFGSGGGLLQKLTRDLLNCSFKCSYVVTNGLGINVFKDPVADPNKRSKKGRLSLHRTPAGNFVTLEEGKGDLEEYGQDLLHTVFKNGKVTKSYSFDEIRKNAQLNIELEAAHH

Kd [1] [µM] | Ki [2] [µM] | Compound
34 ± 2 |  | NC(=O)c1ccc[n+]([C@@H]2O[C@H](COP(=O)([O-])O)[C@@H](O)[C@H]2O)c1 [NMN, nicotinamide mononucleotide]
 | 2.5 | O=[N+]([O-])c1ccc(O[C@@H]2O[C@H](COP(=O)(O)O)[C@@H](O)[C@H]2O)cc1 [5P-pNR, 5-phospho-p-nitrophenyl β-D-ribofuranoside]
